Laboratory results from patent publication US20110021560A1, “Compositions And Methods For Regulating Chondrocyte Proliferation In Bone Disorders” (University of Massachusetts Medical School, priority 2009, published 2011).

Key:
fracture healing = details: rats (Simon et al., 2002); cited from earlier work
fracture callous = test: Mouse femur fracture model: histology and histomorphometry of fracture callous; assay type: in vivo, C57B/6 mice; details: for new bone formation by histomorphometry: Day 7 and Day 10, compared with controls; for amount of unmineralized chondroid matrix / callous size: Day 7 and Day 10 post fracture, vs control; for early stages of fracture repair (Safranin-O histology): animals sacrificed at Days 7, 10 and 14, oral gavage, montelukast sodium 1.5 mg/kg/Day, zileuton 45 mg/kg/Day; for fracture bridging and callous remodeling: by Day 21 (data not shown); for amount of chondroid (quantification) / percent chondroid (quantification) / total callous size (quantification): compared to control, montelukast sodium vs zileuton not significant
Text: Because leukotrienes have been reported as potent inflammatory agents and may have a role as negative regulators of mesenchymal stem cell (MSC) differentiation, it was reasonable to determine as to whether inhibiting the effect of the cysteinyl leukotrienes would enhance chondrocyte proliferation in a bone healing from a fracture. See, Example II. […] Day 0 post-fracture X-rays were taken while under anesthesia. See, FIG. 3. Subsequent X-rays were taken at Days 7, 10, 14, and 21 for all animals (N=4) until the time of sacrifice. […] Histological sections for Days 7, 10, and 14 post-fracture where the differences between treated and control groups were most readily identifiable at early time points. See, FIG. 4. For example, evidence of healing was readily visible between the two treatment groups versus control as early as Day 7.
(§1) C57B/6 mice were purchased (Charles River, Inc.Q3) and housed in the animal facility at the University of Massachusetts Medical School under IACUC approved protocol. Eight- to 9-week-old animals were used in the study.
(§2) Institutional approval was obtained and all procedures were undertaken in accordance with approved IACUC methods. Animals were administered general anesthesia using IP injections of ketamine and xylazine. A midline skin incision over the knee joint was utilized and a median parapatellar arthrotomy was performed to expose the trochlear groove. A pilot hole was made using a 25 gauge needle to gain access to the femoral canal. The central cannula from a 22 gauge spinal needle was inserted into the canal and passed to the proximal femur in retrograde fashion. The wire was backed out slightly, cut, and reinserted. Wounds were closed, and the femur was held in a fixed position while a drop weight from a standard height was used to deliver a fixed traumatic injury to the mid portion of the femur, generating a fracture via three point bending, and ensuring that fractures were generated using a traumatic method with reproducible energy of injury (Marturano et al., 2008).
(§3) Medications were suspended in 1% methylcellulose (Sigma, Inc.Q6) and delivered by direct intragastric delivery. […] As the study medications are both currently FDA approved for the treatment of reactive airway disease, our dosing frequency was based on current prescription guidelines. Montelukast sodium was administered once daily by oral gavage. At the time the study began, zileuton was only approved for four times per Day dosing; as the drug needed to be administered by oral gavage and to maintain the normal sleep/awake cycle of the mouse colonies in the animal facilities, three doses of zileuton were dosed at 6-h intervals, with a 12-h break from 8 pm to 8 am. Control animals received 1% methylcellulose carrier only by a single daily oral gavage. The first dose of all medications was administered on post-fracture Day 1.
All animals were examined pre- and post-fracture using live fluoroscopy with an inverted Xiscan 1000 fluoroscope. Pre-fracture imaging was used to confirm correct positioning of the stabilizing wire, and post-fracture imaging was used to confirm correct fracture location and configuration. Additionally, standard radiographs were obtained in all animals immediately post-fracture with a high resolution MX-20 Faxitron on mammography film. Animals were anesthetized for additional X-rays to document fracture repair at 7, […] Days post-fracture. Animals were sacrificed immediately post-fracture if the fracture was not diaphyseal and transverse.
Fracture specimens were harvested at various times (7, 10, 14, and 21 Days) and fixed in a solution of 4% paraformaldehyde, 0.1% CPC in PBS for 16 h at room temperature, and then embedded in paraffin after decalcification. Embedded tissues were sectioned into […] slices, mounted on silane-coated glass slides (FisherQ7), de-paraffinized, and re-hydrated. […]

[1] = test system: fracture callous mRNA expression; test: Quantitative real-time PCR of fracture callous tissue in mouse fracture model; assay type: in vivo, C57B/6 mice; details: for Col 1 mRNA levels: Day 7, compared with controls (data not shown); for Runx2 mRNA levels: Day 10, vs control (montelukast sodium P<0.05; zileuton P=0.06); for osteocalcin mRNA levels: Day 10, vs control (montelukast sodium P<0.05; zileuton P=0.07); for CysLT1 receptor mRNA levels in fracture callous: Day 10, control peak expression significantly higher; for Col 10a1 mRNA levels: Day 14, vs control (P<0.01)
Text: Fracture callous was harvested from animals (N=4) in the three treatment groups after sacrifice at days 7, 10, 14, and 21 and assayed for expression of chondrogenic markers by qPCR. See, FIG. 10. […] Although it is not necessary to understand the mechanism of an invention, it is believed that the expression of Sox9 and Col 2a mRNA indicate a cellular commitment to the chondrocyte phenotype.
as §1, §2
as §3, with “Montelukast sodium was administered once daily by oral gavage.” left out
Mice were sacrificed on Days 7, 10, 14, and 21 post-fracture. The fractured limb was carefully dissected free and all overlying tissue was carefully removed to expose the fracture callous. Callous tissue alone was then placed in TRIzol reagent, avoiding the underlying cortical bone. The tissue was ground using a Polytron homogenizer and total RNA was isolated as per the manufacturer's instructions (InvitrogenQ11). Any potential DNA contamination was removed by RNase-free DNase treatment. The reverse transcription reaction was performed on […] of total RNA using the First Strand Synthesis Kit and random hexamer primers (Invitrogen). Relative transcript levels were measured by real-time PCR in a […] reaction volume on 96-well plate using ABI PRISM 7000 FAST sequence detection system (Applied BiosystemsQ12), following the recommended protocol for SYBR-Green (Applied Biosystems). Transcript levels were normalized with 18S ribosomal RNA levels using primers from Applied Biosystems and SYBR-Green master mix (Applied Biosystems). The primers used for amplification are described in Table 2.
Student's t-test was performed to analyze the significance of the data for gene expression and histomorphometric analysis.

[2] = Day 10, vs control (P<0.05 for zileuton)

CysLT1 receptor mRNA levels in fracture callous [1] | SMILES | fracture healing (radiographic, histological, mechanical testing) (fracture healing) | new bone formation by histomorphometry (fracture callous) | amount of unmineralized chondroid matrix (fracture callous) | callous size (fracture callous) | early stages of fracture repair (Safranin-O histology) (fracture callous) | fracture bridging and callous remodeling (fracture callous) | amount of chondroid (quantification) (fracture callous) | percent chondroid (quantification) (fracture callous) | total callous size (quantification) (fracture callous) | Col 1 mRNA levels [1] | Col 2a1 mRNA expression [1, 2] | SOX9 mRNA expression [1, 2] | Runx2 mRNA levels [1] | osteocalcin mRNA levels [1] | Col 10a1 mRNA levels [1] | Col 2a1 mRNA expression ([1]; Day 14, vs control (P<0.05)) | time of peak Sox9 mRNA levels ([1]; controls peak at day 7) | histone gene expression by qRT-PCR ([1]; data not shown)
 | Cc1ccc(-c2cc(C(F)(F)F)nn2-c2ccc(S(N)(=O)=O)cc2)cc1 [celecoxib] | fracture healing failed |  |  |  |  |  |  |  |  |  |  |  |  |  |  |  |  | 
low | CC(C)(O)c1ccccc1CCC(SCC1(CC(=O)O)CC1)c1cccc(C=Cc2ccc3ccc(Cl)cc3n2)c1 (centres unmarked) [montelukast sodium, [1-[[1-[3-[2-[(7-chloro-2-quinolyl)]vinyl]phenyl]-3-[2-(1-hydroxy-1-methyl-1-ethyl)phenyl]-propyl]sulfanylmethyl]-cyclopropyl]acetic acid] |  | significantly greater | markedly increased | dramatically larger | enhances | bridged the ends of the fracture and remodeled the callous to woven bone | significantly greater | significantly greater | significantly greater | decrease | not seen | not seen | higher | elevated | higher | elevated | peak later than controls at Day 10 | 
 | CS(=O)(=O)c1ccc(C2=C(c3ccccc3)C(=O)OC2)cc1 [rofecoxib] | fracture healing failed |  |  |  |  |  |  |  |  |  |  |  |  |  |  |  |  | 
low | CC(c1cc2ccccc2s1)N(O)C(N)=O (centres unmarked) [zileuton] |  | significantly greater | markedly increased | dramatically larger | enhances | bridged the ends of the fracture and remodeled the callous to woven bone | significantly greater | significantly greater | significantly greater | decrease | elevated | elevated | increased | elevated | significantly higher |  |  | higher
